For test [1], the system named is fibroblasts from Barth Syndrome patients. To be noted: fibroblasts supplemented with 18:2; cited from earlier work.
Another test deals with SHHF rats. Nature of the test: Long-term diet study in SHHF rats (fifteen to twenty-one months of age). The format is in vivo, rat. The protocol: Experiments were performed to determine whether the amount of (18:2)4CL in vivo may be altered with diet and, if so, whether this capability may be used to influence the time course of heart failure in SHHF rats. The two diets studied were a linoleic acid-rich safflower oil diet and a diet supplemented with lard.
Lean male SHHF rats aged eight weeks and fifteen months were used in the studies. […] The progression toward heart failure in SHHF rats shares a wide variety of marked similarities to the progression toward heart failure in humans.
To study the normal timecourse of HF, male SHHF rats were placed on special diets for six months, from fifteen to twenty-one months of age. This timecourse was chosen, because fifteen months is the time when SHHF rats start to progress from hypertension to HF. By twenty-one months most controls should be showing signs of overt HF.

The next test deals with PPARβ. Briefly: PPAR binding in LVs of twenty month old SHHF rats on linoleic acid supplement. Type of test: in vivo, rat. To be noted: FIG. 13. An excerpt:
Peroxisome Proliferator-Activated Receptors: Peroxisome proliferator-activated receptors (PPARs) are a family of nuclear transcription factors comprised of PPARα, PPARγ, and PPARβ (also called PPARδ). […] Alteration in PPAR isoform levels results in CL changes, and it is well established that the natural activator for PPARs are polyunsaturated fatty acids, such as 18:2. […] PPARβ is currently believed to be the most pharmacologically promising of the three isoforms. Linoleic acid supplementation results in an increase in PPARβ binding, FIG. 13.

A further test concerns TAB rats. Briefly: SC-26196 fed in chow to TAB rats with induced heart failure. Type of test: in vivo, rat. The source says: Δ5 Desaturase and Δ6 Desaturase: Δ6 desaturase mRNA increases with heart failure in SHHF rats (FIG. 11). The Δ5 desaturase and Δ6 desaturase inhibitor SC-26196 (Pfizer) was fed to TAB rats in which heart failure was induced three weeks after TAB. The rats were allowed to reach a pre-failure state for a week and then the drug, SC-26196, was given in the chow for two weeks. […] Use of the Δ5 desaturase and Δ6 desaturase inhibitor, SC-26196, improved the heart function of SHHF rats and caused an increase in linoleic acid and a decrease in arachidonic acid levels in the heart.
Rapid induction of HF was studied using eight week old male SHHF rats maintained on a control (Purina 5001) diet since weaning from their mothers. Rapid HF is induced by transaortic banding (TAB) accompanied by a high salt diet for four weeks (TAB/HS). Rats are used for experiments four weeks following TAB/HS treatment.

Structures are written as SMILES.

`CCCCC/C=C\C/C=C\CCCCCCCC(=O)O` [Linoleic acid, linoleic acid]: the “amount of (18:2)4CL” value in test [1] is recorded as “increased”. For the same compound, in the test on SHHF rats (18:2 supplementation), the left ventricular dimension result was “Trends for improvement” and the systolic function result is listed as “Trends for improvement”. In the test with SHHF rats (compared to lard supplemented or standard chow diets, FIG. 7), the “survivability / survival of SHHF rats” value is reported as “significant increase”. In the test on PPARβ, the PPARβ binding entry was “increase”.

Consider `N#CC(CCCN1CCN(/N=C/c2cccnc2)CC1)(c1ccccc1)c1ccccc1` [SC-26196], for which, in the test with TAB rats (SHHF rats), the “arachidonic acid levels in the heart” value was “decrease” and the “linoleic acid levels in the heart” value is on record as “increase”. For the same compound, in the test with TAB rats (given in the chow), the “survivability of SHHF rats” value is listed as “improved”. The “production of arachidonic acid from linoleic acid” value in the test on TAB rats (given in the chow for two weeks) is “effectively blocked”. Further, in the test on TAB rats (given in the chow for two weeks, FIG. 12A), the “cardiac function (fractional shortening)” value was “improved”. Further, in the test with TAB rats (given in the chow for two weeks, FIG. 12B), the “level of (18:2)4CL” value was “increased”.

The record behind these values is US20080318909A1, “Use Of Linoleic Compounds Against Heart Failure” (priority 2007, published 2008).
